# Results reported in patent publication US7897620B2, “Methods of using anti-inflammatory compounds” (Cambridge Enterprise Limited, priority 2007, dated 2011).
# System: lung leukocyte recruitment and T-helper cell polarisation
# Experiment: Ovalbumin-induced lung inflammation model of asthma (BAL leukocyte count, splenocyte Th1/Th2 ratio)
# Format: in vivo, Brown Norway rat
# Settings: rat, 0.3 mg/kg daily oral
# Experimental: Adult Brown Norway rats (200-300 g body weight; n=10 per group) were sensitised by a single intraperitoneal injection of 0.1 mg Ovalbumin on day 0. Each rat then received an intratracheal challenge with a solution of 1% ovalbumin (w/v) on day 8, and with 2% ovalbumin (w/v) on days 15, 18 and 21. The animals were then sacrificed 3 hours after the final challenge on day 21. Note that ovalbumin (Sigma; purest available grade) was made endotoxin-free by passage over EndoTrap™ Red columns (purchased from Cambrex; used in accordance with the manufacturer's instructions), and the endotoxin level was confirmed as <5 EU/mg protein using the LAL assay (QCL-1000™; Cambrex; performed in accordance with the manufacturer's instructions; 1 mg of standard endotoxin contains ˜900,000 EU/mg). […]
# On sacrifice, total lung leukocyate recruitment was assessed by performing a broncheoalveolar lavage (BAL) using 4 lots of 3 ml sterile phosphate-buffered saline introduced through a tracheal cannula. For each animal, the BAL washes were combined, and the total cell population counted (using a haemocytometer). […]
# The spleen was also removed from each […] and placed in RPMI+10% FCS+antibiotics. […] The resulting cell suspension was then centrifuged (328 g; 5 mins) and washed in RPMI+10% FCS+antibiotics, before being resuspended in fresh media and counted using a haemocytometer. […]
smiles,measurement,value
"CC(C)(C)C(=O)N[C@H]1CCCNC1=O [Compound (I′), 3-(2′,2′-dimethylpropanoylamino)-tetrahydropyridin-2-one]",Th2 polarisation (Th1/Th2 ratio of CD4+ splenocytes),completely abolishes the Th2 polarisation
